Patent publication US20250332139A1, “PS[…] AND THEIR USE FOR TREATING […] AND NE[…] DISORDERS” (Transcend Therapeutics, Inc., priority 2021, published 2025)

Legend:
[1] = target: T1, serotonin transporter (SERT) (Rattus norvegicus, UniProt P31652); test: Competitive radioligand binding, [3H]citalopram, rat brain lysates
T1 construct: from tissue; synaptosomes for uptake and release
Protocol: Radioligands used were: [^3H] Citalopram (PerkinElmer NET1039250UC); [^3H] Nisoxetine (PerkinElmer NET1084250UC); [^3H] WIN35428 (PerkinElmer NET1033250UC). […] Rat brains were dissected and tissue was homogenized in cold lysis buffer, centrifged at 100×g for 2 min and the supernatant was placed in a fresh tube. Supernatant was centrifuged at 13,000×g for 10 min at 4° C. to re-pellet the cell lysate. The pellet was resuspended in fresh wash buffer (50 mM Tris-HCl; 5 mM MgCl2; 5 mM EDTA) and centrifuged a third time. The pellet was then resuspended in wash buffer containing 10% sucrose as a cryoprotectant, divided into aliquots (0.3 mL) and stored at −80° C. A sample of the homogenate was analyzed for protein content using the SIGMA® BCA assay. On the day of the assay, the membrane preparation was thawed, and the pellet resuspended in final assay buffer. […] To each well was added 150 μL membranes, 50 μL of non-specific compound or buffer and 50 μL radioligand solution in buffer. […] Ki was subsequently calculated using the Cheng-Prusoff equation.

rats = test: Reserpine-induced fibromyalgia model, von Frey test; assay type: in vivo, rat; conditions: methylone 15 mg/kg IP 30 min before vonFrey test, day 4
[2] = Excipient compatibility study; assay type: physicochemical; conditions: 2 Week 40° C./75% RH, closed vial
Protocol: Analyses were conducted at t=0, 2, 4 and 8 weeks for appearance, assay, and related substances for samples stored in closed vials at 25° C./60% RH and 40° C./75% RH.
Excipient Compatibility Sample Mixtures: The excipients and API were dispensed individually by weight into 20 mL clear borosilicate (type I) glass vials to fill the appropriate weights as listed in Table 12. Table 12 lists mixtures of API with varied excipients and a stand-alone control sample of API alone. Each excipient mixture sample preparation was conducted using a clean spatula to mix the vial ingredients for 30-60 seconds. Each vial was properly labeled with the description and storage conditions. One vial was used for testing at the initial (t=0) time point. Three vials, closed, were placed at each storage condition to allow sampling at each time point and one vial, closed, was placed at each storage condition for overage.

168 GPCRs [3] = target: 168 GPCRs (Homo sapiens, UniProt O95838); test: β-arrestin GPCR screen (PathHunter/GPCRmax), agonist mode; assay type: cell-based; set-up: host or cells: PathHunter cell lines; conditions: GPCR GLP2R; Agonist mode; 10 uM
Chain of 168 GPCRs (Homo sapiens, UniProt O95838) (O95838 whole entry): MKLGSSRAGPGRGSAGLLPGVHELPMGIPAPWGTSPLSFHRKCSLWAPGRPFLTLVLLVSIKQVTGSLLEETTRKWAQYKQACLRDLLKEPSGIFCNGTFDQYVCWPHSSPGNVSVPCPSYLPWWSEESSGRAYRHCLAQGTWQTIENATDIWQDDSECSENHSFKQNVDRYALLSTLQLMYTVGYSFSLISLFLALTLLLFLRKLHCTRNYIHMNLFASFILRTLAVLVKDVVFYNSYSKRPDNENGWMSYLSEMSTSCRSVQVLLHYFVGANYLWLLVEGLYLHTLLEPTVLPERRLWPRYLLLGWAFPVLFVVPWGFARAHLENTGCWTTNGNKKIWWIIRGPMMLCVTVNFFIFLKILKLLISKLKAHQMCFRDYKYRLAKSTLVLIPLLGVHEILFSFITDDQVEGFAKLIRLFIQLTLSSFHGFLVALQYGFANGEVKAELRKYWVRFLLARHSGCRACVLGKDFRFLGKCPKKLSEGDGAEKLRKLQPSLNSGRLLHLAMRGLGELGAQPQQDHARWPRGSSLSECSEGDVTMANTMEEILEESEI
Protocol: (§1) For agonist determination, cells were incubated with sample to induce response. […] Vehicle concentration was 1%.

168 GPCRs [4] = target: 168 GPCRs (Homo sapiens, UniProt P32249); test: as above; assay type: cell-based; set-up: host or cells: PathHunter cell lines; conditions: GPCR EBI2; Agonist mode; 10 uM
Chain of 168 GPCRs (Homo sapiens, UniProt P32249) (P32249 whole entry): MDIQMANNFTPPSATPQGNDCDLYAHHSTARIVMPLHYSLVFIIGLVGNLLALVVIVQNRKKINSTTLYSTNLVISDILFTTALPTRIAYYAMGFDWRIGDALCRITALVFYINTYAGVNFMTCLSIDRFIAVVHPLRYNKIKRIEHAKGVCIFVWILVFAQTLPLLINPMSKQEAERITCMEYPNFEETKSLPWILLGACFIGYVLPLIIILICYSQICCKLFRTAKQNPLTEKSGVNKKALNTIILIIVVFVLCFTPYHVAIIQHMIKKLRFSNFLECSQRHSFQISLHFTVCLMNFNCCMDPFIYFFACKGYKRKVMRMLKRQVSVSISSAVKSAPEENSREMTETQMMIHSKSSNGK
Protocol: as §1

168 GPCRs [5] = target: 168 GPCRs (Homo sapiens, UniProt Q969F8); test: as above; assay type: cell-based; set-up: host or cells: PathHunter cell lines; conditions: KISS1R; Agonist; 1 uM
Chain of 168 GPCRs (Homo sapiens, UniProt Q969F8) (Q969F8 whole entry): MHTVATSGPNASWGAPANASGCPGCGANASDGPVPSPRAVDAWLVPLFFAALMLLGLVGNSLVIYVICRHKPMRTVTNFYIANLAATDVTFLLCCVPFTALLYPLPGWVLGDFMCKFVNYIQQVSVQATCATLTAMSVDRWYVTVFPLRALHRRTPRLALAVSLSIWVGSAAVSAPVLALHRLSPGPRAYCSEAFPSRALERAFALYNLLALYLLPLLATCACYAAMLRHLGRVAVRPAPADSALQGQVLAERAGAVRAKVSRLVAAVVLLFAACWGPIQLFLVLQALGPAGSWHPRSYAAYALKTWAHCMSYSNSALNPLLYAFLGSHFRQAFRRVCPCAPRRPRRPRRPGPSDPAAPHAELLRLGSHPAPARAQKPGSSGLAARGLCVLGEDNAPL
Protocol: as §1

T1 sequence (P31652 whole entry): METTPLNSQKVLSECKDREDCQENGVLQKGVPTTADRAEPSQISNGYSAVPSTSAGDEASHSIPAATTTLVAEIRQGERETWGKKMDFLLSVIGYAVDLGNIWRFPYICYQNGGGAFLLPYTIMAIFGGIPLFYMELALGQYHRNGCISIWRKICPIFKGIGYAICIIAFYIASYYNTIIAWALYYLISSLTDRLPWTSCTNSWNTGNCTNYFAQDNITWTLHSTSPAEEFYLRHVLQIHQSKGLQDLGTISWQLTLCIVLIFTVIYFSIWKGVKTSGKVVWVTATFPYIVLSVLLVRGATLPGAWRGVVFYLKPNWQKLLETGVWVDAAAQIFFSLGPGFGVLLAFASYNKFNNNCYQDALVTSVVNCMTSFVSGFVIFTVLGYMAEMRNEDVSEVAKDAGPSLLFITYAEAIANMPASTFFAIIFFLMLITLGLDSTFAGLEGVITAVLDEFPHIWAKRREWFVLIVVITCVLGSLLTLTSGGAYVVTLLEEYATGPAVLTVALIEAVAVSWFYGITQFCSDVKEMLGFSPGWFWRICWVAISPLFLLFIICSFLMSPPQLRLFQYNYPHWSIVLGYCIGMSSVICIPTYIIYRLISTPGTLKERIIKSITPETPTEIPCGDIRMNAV

CNC(C)C(=O)c1ccc2c(c1)OCO2 (stereo not drawn) [methylone, 3,4-methylenedioxy-N-methylcathinone]
Ki [1]: 4.15 µM | paw withdrawal thresholds (rats): significantly increased paw withdrawal thresholds | Assay (% Recovery) [2]: 99.0 % Recovery | activity at 10 µM (168 GPCRs [3]): -1% | activity at 10 µM (168 GPCRs [4]): -0.1% | activity at 1 µM (168 GPCRs [5]): ~-5%
